Measurements reported in patent publication US20240207163A1, “RETINOL DERIVATIVE COMPOSITION AND USE THEREOF” (Inertia Shanghai Biotechnology Co., Ltd., priority 2021, published 2024).
Values joined by “and” are separate entries in the source; they are usually repeats but may differ in a detail not shown here. Identical values can stand only once.

Legend:
Format in all cases: cell-based
Elastin mRNA = assay: Various anti-aging related mRNA expression experiment (qPCR), Elastin; conditions: HFF-1 cells, 5 μg/mL HPR, 9 μg/mL retinyl propionate, alone or in combination, individual replicates
Procedure: (§1) RNA extraction: a cell sample was taken, a supernatant was removed, 1 mL of a TRIZON reagent was added into each well of a 6-well plate, the cells were stood, cracked, and transferred to a 1.5-mL EP tube, 0.2 mL of chloroform was added, and the mixture was shaken, uniformly mixed, stood on ice, and centrifuged at 12,000 rpm/min at 4° C. for 15 min; about 400 μL of an obtained supernatant was taken, isopropanol with the same volume was added, the mixture was lightly shaken, stood on ice at 4° C., and centrifuged at 12,000 rpm/min for 10 min; an obtained supernatant was removed, 1 mL of 75% ethanol was added into an obtained precipitate, an EP tube was shaken to float the precipitate to achieve a washing effect, the obtained product was centrifuged at 7,500 rpm/min at 4° C. for 10 min; an obtained supernatant was removed, a part of ethanol was left, the product was centrifuged at 7,500 rpm/min at 4° C. for 5 min, and residual ethanol was removed from the inner wall of the tube; and an obtained supernatant was removed, the liquid was aspirated, and a certain amount of RNA-free water was added for resuspension and dissolution. 2 μL of the product was analyzed on a SpectraMax iD3 multifunctional microplate reader for detecting the RNA concentration and A260/A280 value.
(§2) cDNA synthesis: the mRNA was subjected to reverse transcription into cDNA by using a HiFiScript cDNA synthesis kit.
(§3) Fluorescence quantification: the expression of the Elastin mRNA in the cell sample was detected by mixing an UltraSYBR Mixture premixed solution and the cDNA, and loading the mixture into a machine.
(§4) 3.1 Experimental content: an effect of 5 μg/mL of HPR and 9 μg/mL of retinyl propionate alone or in combination on expressions of collagen-related mRNAs in HFF-1 cells.
(§5) 3.2 Experimental method: the HFF-1 cells were seeded in a 96-well plate (3,000 cells/mL and […]) and administrated in a 5 μg/mL HPR group, a 9 μg/mL retinyl propionate group, and a 5 μg/mL HPR+9 μg/mL retinyl propionate group. A blank control was set at the same time. Total RNA of the cells was extracted at 24 h, 48 h, and 72 h and the expressions of the collagen-related mRNAs were detected by qPCR. (The specific operation steps referred to section 1.2)
(§6) 3.3 Experimental results: data was input by the Excel, subjected to statistical processing by a Prism (Version 7) software package, and expressed as meantstandard error. Each data was subjected to a one-way analysis of variance and p<0.05 was considered to be statistically different.

HFF-1 cells = assay: Cytotoxicity experiment (CCK-8 cell viability); conditions: 24 h, 5 μg/mL HPR, 9 μg/mL retinyl propionate, alone or in combination, individual replicates
Procedure: 2.1 Experimental content: an effect of 5 μg/mL of HPR and 9 μg/mL of retinyl propionate alone or in combination on the viability of HFF-1 cells.
2.2 Experimental method: the HFF-1 cells were seeded in a 96-well plate (3,000 cells/mL and 100 μL per well) and administrated in a 5 μg/mL HPR group, a 9 μg/mL retinyl propionate group, and a 5 μg/mL HPR+9 μg/mL retinyl propionate group. A blank control was set at the same time. The cell viability after 24 h of the administration treatment was detected using a CCK-8 kit.
2.3 Experimental results: data was input by the Excel, subjected to statistical processing by a Prism (Version 7) software package, and expressed as meantstandard error. Each data was subjected to a one-way analysis of variance and p<0.05 was considered to be statistically different.

Col-IV mRNA = assay: Various anti-aging related mRNA expression experiment (qPCR), Col-IV; conditions: HFF-1 cells, 5 μg/mL HPR, 9 μg/mL retinyl propionate, alone or in combination, individual replicates
Procedure: as §1, §2, §3, §4, §5, §6

CRBPI mRNA = assay: Various anti-aging related mRNA expression experiment (qPCR), CRBPI; conditions: HFF-1 cells, 5 μg/mL HPR, 9 μg/mL retinyl propionate, alone or in combination, individual replicates
Procedure: as §1, §2, §3, §4, §5, §6

RARB mRNA = assay: Various anti-aging related mRNA expression experiment (qPCR), RARB; conditions: HFF-1 cells, 5 μg/mL HPR, 9 μg/mL retinyl propionate, alone or in combination, individual replicates
Procedure: as §1, §2, §3, §4, §5, §6

SMILES	Elastin mRNA expression (blank control 1) (Elastin mRNA; after 24 h)	Elastin mRNA expression (blank control 1) (Elastin mRNA; after 48 h)	Elastin mRNA expression (blank control 1) (Elastin mRNA; after 72 h)	viability of HFF-1 cells (blank control 100) (HFF-1 cells)	Col IV mRNA expression (blank control 1) (Col-IV mRNA; after 24 h)	Col IV mRNA expression (blank control 1) (Col-IV mRNA; after 48 h)	Col IV mRNA expression (blank control 1) (Col-IV mRNA; after 72 h)	CRBPI mRNA expression (blank control 1) (CRBPI mRNA; after 24 h)	CRBPI mRNA expression (blank control 1) (CRBPI mRNA; after 48 h)	CRBPI mRNA expression (blank control 1) (CRBPI mRNA; after 72 h)	RARB mRNA expression (blank control 1) (RARB mRNA; after 24 h)	RARB mRNA expression (blank control 1) (RARB mRNA; after 48 h)	RARB mRNA expression (blank control 1) (RARB mRNA; after 72 h)
CC1=C(/C=C/C(C)=C/C=C/C(C)=C/C(=O)OCC(=O)C(C)(C)C)C(C)(C)CCC1 [HPR, hydroxypinacolone retinoate]	1.778 and 14.52 and 1.029	2.928 and 2.809 and 3.317	1.963 and 3.52 and 4.112	104.9 and 101.4 and 100.3	1.357 and 1.014 and 1.223	1.474 and 1.094 and 1.945	1.165 and 1.265 and 0.9395	3.223 and 1.094 and 1.597	1.094 and 1.488 and 1.58	4.017 and 1.79 and 3.295	1.079 and 3.732 and 5.063	1.659 and 1.189 and 3.605	2.395 and 1.042 and 4.925
CCC(=O)OC/C=C(C)/C=C/C=C(C)/C=C/C1=C(C)CCCC1(C)C [retinyl propionate]	1.778 and 16.11 and 1.157	1.866 and 2.77 and 3.01	5.736 and 6.727 and 1.275	100.2 and 100.8 and 95.66	1 and 1.357 and 1.079	1.385 and 1.485 and 1.117	1.625 and 1.189 and 0.9794	1.58 and 1.866 and 1.042	1.275 and 1.647 (2×)	3.272 and 1.087 and 1.072	1.301 and 1.214 and 2.828	1.301 and 1.602 and 1.079	1.803 and 1.165 and 1.301
